From US20240335465A1 (University of Virginia Patent Foundation, priority 2021, published 2024)

Assays:
γH2AX = γH2AX immunofluorescence (human RPE, THP1 cells); type: cell-based
Procedure: Immunofluorescence Staining: 16,500 adherent cells/cm^2 were plated on a gelatin coated 8-chamber slide (VWR, Catalogue #62407-296) and treated as indicated. Media was removed and cells were washed with 1×PBS with Ca^2+/Mg^2+ and fixed with 4% PFA for 20 minutes. Fixed cells were permeabilized with PBS+0.1% Triton-X and washed 3 times with PBS+0.1% Tween20. After treatment as indicated, non-adherent THP1 cells were collected by centrifugation, washed in cold PBS and fixed in PFA. Post-fixation, they were washed with PBS, spotted on gelatin coated “PTFE” Printed Slides (Electron Microscopy Sciences, Cat #63424-06), and air-dried. For γH2AX staining, permeabilized cells were blocked in Serum-free DAKO Protein Block (Agilent, Catalogue #X0909) for 1 hr at room temperature. Cells were incubated in primary antibody (γH2AX, 1:500; anti-HA, 1:100; Table 1) in DAKO antibody diluent at 4° C. overnight on a rocker platform. U2OS-STING cells undergoing Rad51 staining were first fixed in methanol for 20 minutes in −20° C., blocked for 1 hr with donkey block (2% normal donkey serum, 1% BSA, 0.1% Triton X 100, 0.05% Tween20, 0.05% Sodium Azide in PBS), then finally incubated in an anti-Rad51 antibody overnight at 4° C. (Bio-academia Cat #70-001, 1:6000 in 5% milk in TBST). For RPA70 staining, cells were fixed in 4% PFA at room temperature for 20 minutes and blocked in Cell Signaling blocking buffer (1×PBS/5% normal donkey serum/0.3% Triton™ X-100) for 1 hr in room temperature then incubated in an RPA70 antibody (Cell Signaling Cat #2267, 1:50 in blocking buffer) overnight at 4° C. Primary antibody was washed 3 times and incubated with secondary antibodies (Invitrogen, Alexa 555, 488) for 1 hr at room temperature. Coverslips were mounted on the cells with ProLong™ Gold Antifade mounting media with DAPI (Thermofisher, Catalogue #P36935). All images were obtained by confocal microscopy (Nikon, C2).

DDR signaling = DDR signaling immunoblot in STING-reconstituted U2OS cells; type: cell-based, human; settings: cGAMP 18 hours
Procedure: Generation of U2OS-STING cells: WT U2OS cells were reconstituted with STING by integrating LentiORF-TMEM173 (CCSB-Broad Lentiviral Expression Collection, TMEM173, Cat #ccsbBroad304_05465) via lentiviral transduction of U2OS cells as described above. Exposure to blasticidin (10 μg/ml) for 14 days facilitated the selection of STING integrated cells whose protein over-expression profiles were assessed by immunoblotting.

THP1 cells [1] = assay: Quantitative RT-PCR gene expression in THP1 cells; type: cell-based, human
From the text: Quantitative RT-PCR analysis: Cells collected at indicated time points were washed with ice cold PBS and lysed in lml Trizol (Invitrogen). Total RNA extracted according to the manufacturer's recommendations was DNase treated and reverse transcribed to make cDNA with a QuantiTect Reverse Transcription kit (QIAGEN). The cDNAs synthesized were amplified by real-time quantitative PCR (Applied Biosystems 7900 HT Fast Real-Time PCR system) with Power SYBR green Master Mix. Relative gene expression was determined by the 2-ΔΔCt method, and 18S rRNA or GAPDH was used as an internal control. Primer details in Table 2.

U2OS-STING cells = assay: RAD51 and RPA70 foci in EdU+ U2OS-STING cells; type: cell-based, human; settings: EdU-positive S-phase cells, Camptothecin 5 μM 16 hours
Procedure: Immunofluorescence Staining: 16,500 adherent cells/cm^2 were plated on a gelatin coated 8-chamber slide (VWR, Catalogue #62407-296) and treated as indicated. Media was removed and cells were washed with 1×PBS with Ca^2+/Mg^2+ and fixed with 4% PFA for 20 minutes. Fixed cells were permeabilized with PBS+0.1% Triton-X and washed 3 times with PBS+0.1% Tween20. After treatment as indicated, non-adherent THP1 cells were collected by centrifugation, washed in cold PBS and fixed in PFA. Post-fixation, they were washed with PBS, spotted on gelatin coated “PTFE” Printed Slides (Electron Microscopy Sciences, Cat #63424-06), and air-dried. For γH2AX staining, permeabilized cells were blocked in Serum-free DAKO Protein Block (Agilent, Catalogue #X0909) for 1 hr at room temperature. Cells were incubated in primary antibody (γH2AX, 1:500; anti-HA, 1:100; Table 1) in DAKO antibody diluent at 4° C. overnight on a rocker platform. […]
EdU incorporated cells were detected by confocal microscopy after Click-iT® EdU labeling following the manufacturer's protocol (Click-iT™ EdU Alexa Fluor™ 594 Imaging Kit, Thermo Fisher Cat #C10339).

THP1 cells [2] = assay: Alkaline comet assay in THP1 cells; type: cell-based, human
Procedure: Comet assays: DNA damage in individual cells was assessed using OxiSelect™ Comet Assay Kits (Cell Biolabs, Cat #STA-351) according to the manufacturer's protocol. THP1 cells were treated as indicated, collected by centrifugation, washed twice with ice-cold PBS, and resuspended in cold PBS at 1×10^5 cells/ml. Cells were mixed with molten Comet agarose (1:10, v/v) and immediately transferred to wells of the Comet Agarose Base Layer (pre-prepared by adding 75 μl molten agarose to Comet slides) in 75 μl aliquots. Cells were embedded on the agarose by cooling the gel at 4° C. for 15 minutes in the dark and then lysed in pre-chilled lysis buffer for 60 minutes at 4° C. The cell-containing slides were neutralized in pre-chilled alkaline buffer for 30 minutes and then carefully transferred to a horizontal electrophoresis chamber. Electrophoresis was conducted in cold Alkaline Electrophoresis Solution (300 mM NaOH, pH>13, 1 mM EDTA) for 30 minutes at 1 volt/cm (300 mA current). The samples were washed three times in pre-chilled water and immersed in 70% ethanol for 5 minutes. The cells were subsequently air dried and their DNA stained with 100 μl/well of diluted Vista Green DNA Dye. After incubating at room temperature, cells were finally visualized under a fluorescence microscope using an FITC filter. Comet length was quantified using OpenComet software as described before (Gyori et al., 2014).

[3] = test system: HEK293-ACE reporter cells; assay: ACE CRISPR/Cas9 reporter system; type: cell-based, human; settings: cGAMP transfection; interferon β 50 ng/ml
Procedure: ACE CRISPR/Cas9 reporter system: The ACE reporter (Addgene #109428) described previously (Aird et al., 2018; St. Martin et al., 2018) was integrated in HEK293 cells using lentiviral transduction. ACE reporter integrated cells (GFP+) were sorted in a Becton Dickinson Influx Cell Sorter and propagated. […] 72 hours post RNP transfection, cells were trypsinized, collected, and analyzed with an Attune NxT flow cytometer (Thermofisher). To quantify the HDR DNA repair events, ˜10,000-30,000 cells were acquired on an Attune NxT cytometer and analyzed using FCS Express software. Single cell events were determined by gating on the area against the width of the forward scatter pulse signal. Debris removal was performed by excluding events with very low forward and side scatter. For determining % of mCherry positive cells we established positive and negative populations using mock transfections as negative controls and mCherry transfected samples as Fluorescence Minus One controls.

THP1 cells [4] = assay: CellTiter 96 AQueous One Solution Cell Proliferation (MTS) assay; type: cell-based, human
Procedure: Cell Viability Assay: MTS assays were performed using the CellTiter 96 AQueous One Solution Cell Proliferation Assay (Promega) according to the manufacturer's instructions. […] 48 hours the later MTS assay was performed according the to manufacturer's protocol.

## Nc1nc2c(ncn2[C@@H]2O[C@@H]3COP(=O)(O)O[C@H]4[C@@H](O)[C@H](n5cnc6c(N)ncnc65)O[C@@H]4COP(=O)(O)O[C@@H]2[C@@H]3O)c(=O)[nH]1 [cGAMP, cyclic guanosine monophosphate-adenosine monophosphate]
γH2AX; WT, STING−/−, shIFNAR THP1 cells, 16 hours
  cGAMP-induced pan-nuclear γH2AX staining: suppressed in STING^−/− but not in sh-IFNAR THP1 cells
γH2AX; human RPE cells, doxorubicin 2 hours, cGAMP or HT-DNA 6 hours
  γH2AX staining pattern: γH2AX marked by pan-nuclear staining
DDR signaling
  DDR signaling (γH2AX, pCHK2): exhibiting biochemical evidence of DDR signaling
THP1 cells [1]; STING−/− THP1, 10 μM MRT67307 2 hours then cGAMP 6 hours
  dependence of DDR gene induction on STING and TBK1: dependent on STING and TBK1
THP1 cells [1]; THP1, exogenous cGAMP 1 μg vs transfected HT-DNA 2 μg
  induction of IFN genes (IFN-β and ISGs): comparable to that of cytosolic DNA-induced, endogenously produced cGAMP
THP1 cells [1]; WT THP1, 6 hours
  CDKN1A/p21 transcript: strong induction of CDKN1A/p21
  transcript abundance of E2F target genes: decreased transcript abundance of E2F target genes
U2OS-STING cells
  DNA damage-induced RAD51 and RPA foci formation: suppressed DNA damage-induced RAD51 and RPA foci formation in EdU-positive S-phase cells
THP1 cells [2]; THP1, cGAMP 6 hours then 1 μM camptothecin 16 hours
  camptothecin-induced DNA damage (comet tail length): exacerbates camptothecin-induced DNA damage
THP1 cells [2]; THP1 cells, cGAMP 16 hours
  DNA strand breaks in comet assay: no strand breaks were observed
[3]
  HDR-mediated CRISPR editing (mCherry positive cells): significantly dampened HDR-mediated CRISPR editing
THP1 cells [4]; WT THP1, 10 μM Rucaparib, 10Gy, 48 hours
  sensitization to IR in rucaparib-pretreated cells: unable to further sensitize cells to IR
THP1 cells [4]; WT THP1, 10Gy, 48 hours
  sensitivity to ionizing radiation (cell survival): more sensitive to ionizing radiation (IR)
THP1 cells [4]; WT THP1 post cGAMP treatment
  THP1 cell proliferation: inhibited THP1 cell proliferation
